Experimental findings from patent US10882852B1, “3-vinylquinolines as cancer cells inhibitors” (King Abdulaziz University, priority 2020, dated 2021) are described below.

The subject of assay [1] is MCF-7 cells. Nature of the assay: Annexin V/PI apoptotic assay. Conditions: MCF-7, 50 nM, 48 h; control 1%. The format is cell-based, human. The method, then: Apoptotic cell death was detected by flow cytometry using Annexin V and propidium iodide (PI). […] Cells were then harvested and prepared for flow cytometric analysis. Cells were washed in 1× binding buffer (20× binding buffer: 0.1M HEPES, pH 7.4; 1.4 M NaCl; 25 mM CaCl2) diluted in dH2O) and incubated in the dark for 30 minutes on ice in Annexin V-containing binding buffer [1:100]. Cells were then washed once in binding buffer and then re-suspended in […] binding buffer [1:1000]. Samples were analysed immediately using the BD accuri flow cytometer and prism software for analysis the data. Four populations are produced during the assay Annexin V and PI negative (Q4, healthy cells), Annexin V positive and PI negative (Q3, early apoptosis), Annexin V and PI positive (Q2, late apoptosis) and Annexin V negative and PI positive (Q1, necrosis).

In assay [2] the test system is HeLa cervical cancer cells. Nature of the assay: MTT cell viability assay, HeLa. The assay is classed as cell-based, human. The method, then: (§1) All the human tumour cell lines MCF-7, HCT-116, HL-60 and HeLa were cultured in Dulbecco's Modified Eagle's Medium (DMEM) with 10% fetal bovine serum, 2 mM L-glutamine and 100 µg/mL penicillin/streptomycin. Cells were maintained at 37° C. in 5% CO2 in a humidified incubator. All cells were sub-cultured 3 times/week by trypsinization using TrypLE Express (1×).
(§2) The quinoline compounds were evaluated for antiproliferative effect using the MTT viability assay of four cancer cell lines (MCF-7, HCT-116, HL-60 and HeLa) and normal breast cells MCF-10A to calculate the relative IC50 values for each compound. Cells were seeded in triplicate in 96-well plates at a density of 10×10^3 cells/ml in a total volume of 200 μl per well. 0.1% of DMSO was used as a vehicle control. After this time, they were treated with 2 μl test compound which had been pre-prepared as stock solutions in ethanol to furnish the concentration range of study, 1 nM to 50 μM, and re-incubated for a further 72 h. The culture medium was then removed, and the cells washed with 100 μL phosphate buffered saline (PBS) and 50 μL MTT added, to reach a final concentration of 1 mg/mL MTT added. Cells were incubated for 2 h in darkness at 37° C. At this point solubilisation was begun through the addition of […] DMSO and the cells maintained at room temperature in darkness for 20 min to ensure thorough colour diffusion before reading the absorbance. Plates were incubated for 72 hours at 37° C.+5% CO2, The MTT (5 mg/mL in PBS) was added and incubated for another 4 h, the optical density was detected with a microplate reader at 570 nm. Results were expressed as percentage viability relative to vehicle control (100%). Dose response curves were plotted and IC50 values (concentration of drug resulting in 50% reduction in cell survival) were obtained using the commercial software package Prism (GraphPad Software, Inc., La Jolla, Calif., USA). All the experiments were repeated in at least three independent experiments.
(Tetrazolium assays rely on reduction of a dye to a coloured formazan, in cell work by metabolically active cells.)

Assay [3] concerns tubulin (colchicine binding site). In words: [3H]colchicine site competitive binding assay. The conditions noted are these: inhibition of [3H]colchicine binding. The method, then:
The affinity of compounds 8c to colchicine binding site was determined using Colchicine Site Competitive Assay kit CytoDYNAMIX Screen15 (Cytoskeleton, Inc., CO, USA) using the standard protocol of the manufacturer to determine Ki values (μM). Biotin-labelled tubulin ([…]) in 10 μL of reaction buffer was mixed with [3H]colchicine (0.08 μM, PerkinElmer, Waltham, Mass.) and the test compounds (positive control colchicine, negative control vinblastine, G-1, fluorescent G-1, or 2-ME) in a 96-well plate (final volume: 100 μL). After incubating for 2 h at 37° C. with gentle shaking, streptavidin-labelled yttrium SPA beads ([…] in 20 μL reaction buffer, PerkinElmer, Waltham, Mass.) were added to each well and incubated for 30 min at 4° C. The plates were then read on a scintillation counter (Packard Instrument, Topcount Microplate Reader) and the percentage of inhibition was calculated

Another assay has as its system HL-60 leukemia cells. In words: MTT cell viability assay, HL-60. The format is cell-based, human. The method, then: as §1, §2
For assay [4], the system named is MCF-7 cells. In words: ROS production by H2-DCFDA. The assay is classed as cell-based, human. Conditions: MCF-7, 50 nM, 24 h; untreated 1.0%. The method, then: Mitochondrial membrane potential (Δψmt) was measured by flow cytometry with DiOC2(3) staining and additional labelling with an annexin V conjugate. After treatment with compound 8c (50 and 250 nM) and CA-4 (50 nM), cells were stained with DiOC2(3) dye for 30 min in the incubator then harvested and washed with PBS. DiOC2(3)-stained cells were resuspended with 1× annexin binding buffer then added annexin V conjugate and incubated at 37° C. for 15 min. Then the data obtained from flow cytometry were analyzed by Cell Quest software. Production of intracellular Reactive oxygen species (ROS) was measured using 2,7-dichlorofluorescin diacetate (H2-DCFDA) dye. MCF-7 cells were seeded and treated either with vehicle (0.1% DMSO) or with compound 8c (50 and 250 nM) and CA-4 (50 nM) for different time 6, 12 and 24 h. H2O2 was used as a positive control. The amount of ROS generated was estimated after 2 h of selected compound treatment. The cells were collected by centrifugation and washed twice with PBS. Cells were then incubated with DCFDA dye (25 μM) in dark at 37° C. for 1 h. Fluorescence spectra (510-600 nm) were monitored using an excitation wavelength of 488 nm

In assay [5] the test system is MCF-7 breast cancer cells. In words: MTT cell viability assay, MCF-7. The format is cell-based, human. The protocol:
as §1, §2

Assay [6] relates to MCF-10A normal epithelial breast cells. In words: MTT cell viability assay, normal breast cells. The assay is classed as cell-based, human. The conditions noted are these: 72 h. The method, then: as §2, with “Dose response curves were plotted and IC50 values (concentration of drug resulting in 50% reduction in cell survival) were obtained using the commercial software package Prism (GraphPad Software, Inc., La Jolla, Calif., USA). All the experiments were repeated in at least three independent experiments.” left out

Assay [7] has as its system HCT-116 colon cancer cells. In words: MTT cell viability assay, HCT-116. The format is cell-based, human. Conditions: HCT-116, MTT. The method, then: as §1, §2
Assay [8] concerns MCF-7 cells. Nature of the assay: Cell cycle analysis by PI flow cytometry. The assay is classed as cell-based, human. The conditions noted are these: MCF-7, 50 nM. The protocol:
MCF-7 cells were seeded at a density of 1×10^5 cells/well in 6-well plates and treated with CA-4 (50 nM) and compound 8c (50 and 250 nM) for 24, 48 and 72 hr. The cells were collected by trypsinization and centrifuged at 800×g for 15 min. Cells were washed twice with ice-cold PBS and fixed in ice-cold 70% ethanol overnight at −20° C. Fixed cells were centrifuged at 800×g for 15 min and stained with 50 μg/mL of PI, containing 50 μg/mL of DNase-free RNase A, at 37° C. for 30 min. The DNA content of cells (10,000 cells/experimental group) was analysed by flow cytometer at 488 nm using a FACSCalibur flow cytometer (BD Biosciences, San Jose, Calif.) and all data were recorded and analyzed using the CellQuest Software (Becton-Dickinson).
(In general: In flow cytometry, cells or beads pass a laser one at a time.)

The subject of the next assay is bovine brain tubulin. In words: Tubulin polymerization assay. The format is biochemical. Conditions: inhibition of tubulin polymerization; tubulin at 10 μM; read-out: Tubulin assembly IC50 ± SD. The protocol: The assembly of purified bovine tubulin was monitored using a kit, BK006, purchased from Cytoskeleton Inc., (Denver, Colo., USA). The assay was carried out in accordance with the manufacturer's instructions using the standard assay conditions. […] Light is scattered proportionally to the concentration of polymerized microtubules in the assay. Therefore, tubulin assembly was monitored turbidimetrically at 340 nm in a Spectramax 340 PC spectrophotometer (Molecular Devices, Sunnyvale, Calif., USA). The concentration that inhibits tubulin polymerization by 50% (IC50) was determined using area under the curve (AUC). The AUC of the untreated controls were considered as 100% polymerization. The IC50 value for each compound was computed using GraphPad Prism Software.

The subject of the next assay is caspase-9. Nature of the assay: Caspase-9 activation assay in MCF-7 cells. The conditions noted are these: MCF-7, 50 nM. The assay is classed as cell-based, human. The protocol:
(§3) Bcl-2 content of MCF-7 cells was assessed by ELISA Kit purchased Zymed laboratories, invitrogen immunodetection according to the manufacturer's protocol, and the enzyme concentration was expressed as ng/mL [55]. ELISA Assay for BAX content of MCF-7 cells was assessed by ELISA kit purchased from Cloud-Clone Crop. (USA) according to the manufacturer's protocol, and the enzyme concentration was expressed as ng/mL [56]. In Vitro Caspase-9 Activation Assay was performed using human active caspase-9 Invitrogen EIA kit and the procedure of the used kit was done according to the manufacturer's instructions.

Assay [9] relates to pro-apoptotic protein Bax. Nature of the assay: BAX ELISA in MCF-7 cells. The assay is classed as cell-based, human. The conditions noted are these: MCF-7, 250 nM, 48 h. The protocol: as §3
Assay [10] has as its system MCF-7 cells. In words: Wound healing (cell migration) assay. The format is cell-based, human. The conditions noted are these: MCF-7, 24 h. The method, then: MCF-7 were grown in 6-well plates for 24 h, then the scratches were made using pipette tip and washed with PBS to remove non-adherent cell debris. Subsequently, the cells were treated with different concentrations of 8c for 24 h. The migrations across the wound area were photographed under a phase contrast microscopy.

Assay [11] has as its system anti-apoptotic protein Bcl-2. Nature of the assay: Bcl-2 ELISA in MCF-7 cells. The format is cell-based, human. Conditions: MCF-7, 250 nM, 48 h. The protocol: as §3
On the technique in general: An ELISA detects its analyte on a solid surface through an enzyme-linked reagent.

The test system of assay [12] is MCF-7 cells. In words: Colony formation assay. The conditions noted are these: MCF-7, 50 and 250 nM. The assay is classed as cell-based, human. The method, then: MCF-7 cells (600 cells per well) were seeded in 6-well plates and incubated for 24 h before being then treated with different doses of the compound 8c (50 and 250 nM) for 14 days. […]. Then the cells were washed with PBS twice and subsequently fixed with 4% paraformaldehyde and stained with 0.05% crystal violet for 30 min. Finally, cells were visualized using an inverted microscope.

SMILES strings stand for the structures. Values joined by “and” are separate entries in the source; they are usually repeats but may differ in a detail not shown here. Equal values may be shown once. Read-outs that look alike come from different tables or passages of the source.

For orientation: IC50 means the point on the concentration scale where inhibition reaches its midpoint. For `COc1ccc(/C=C\c2cc(OC)c(OC)c(OC)c2)cc1O` [CA-4, Combretastatin A-4, reference compound], the “Annexin V-staining positive cells (total apoptotic cells)” value in the assay with MCF-7 cells [1] turned out to be 29%. Also, the concentration for half-maximal inhibition (IC50) in [2] (72 h, read-out: IC50 value (μM) HeLa) was 0.064 ± 0.004 µM; in the assay on HL-60 leukemia cells (HL-60, MTT, 72 h, mean ± spread of three experiments, read-out: IC50 value (μM) HL-60) it was 0.076 ± 0.004 µM; in assay [5] (MCF-7, MTT, 72 h, read-out: IC50 value (μM) MCF-7), 0.019 ± 0.004 µM; in assay [6] it was 6100 nM; in assay [7] (72 h, read-out: IC50 value (μM) HCT-116), 0.026 ± 0.001 µM; in the assay on bovine brain tubulin, […]. The “Colchicine binding % ± SD, 1 μM drug” value in assay [3] was 86% and 86 ± 0.9%. Also, in assay [3], the “Colchicine binding % ± SD, 5 μM drug” value was 97% and 97 ± 2%. Further, the ROS generation in the assay with MCF-7 cells [4] worked out at 18.3%. Further, the “percentage of cells in G2/M phase” value in the assay on MCF-7 cells [8] (24 h) was found to be 40.3%; in the assay on MCF-7 cells [8] (48 h, control 9.2%) it was 43.8%; with MCF-7 cells [8] (72 h), 47.7%. Besides, the “population in the sub-G1 phase (apoptosis)” value with MCF-7 cells [8] (24 h) is given as 23.5%; in the assay on MCF-7 cells [8] (48 h), 31.1%; in the assay on MCF-7 cells [8] (72 h), 37.4%.

In the case of `COc1cc(C2=NC(=Cc3cc4ccc(C)cc4nc3OC)C(=O)O2)cc(OC)c1OC` [Compound 8c, 4-[(2-Methoxy-7-methylquinolin-3-yl)methylene]-2-(3,4,5-trimethoxyphenyl)oxazol-5(4H)-one], in the assay on MCF-7 cells [1], the “Annexin V-staining positive cells (total apoptotic cells)” value was found to be 15%. The IC50 in assay [2] (Homo sapiens, read-out: IC50 in HeLa) stood at 0.0427 µM; in the assay with HL-60 leukemia cells (HL-60, MTT, read-out: IC50 in HL-60), 0.0107 µM; in the assay with HL-60 leukemia cells (Homo sapiens, HL-60, HL-60, MTT, read-out: IC50 in HL-60), 0.0191 µM; in assay [5] (Homo sapiens, MCF7, MCF-7, MTT, read-out: IC50 in MCF-7), 0.0107 µM; in assay [5] (MCF-7, MTT, read-out: IC50 in MCF-7), 0.0191 µM; in assay [7] (Homo sapiens, read-out: IC50 in HCT-116), 0.0225 µM. In addition, the IC50 in the assay on bovine brain tubulin was 1200 nM and 1210 nM. Moreover, the “Colchicine binding % ± SD, 1 μM drug” value in assay [3] was 79% and 79 ± 2%. The “Colchicine binding % ± SD, 5 μM drug” value in assay [3] is 87% and 87 ± 1%. The “fold increase in caspase-9 expression” value in the assay on caspase-9 is on record as “about 6 fold”. The “expression of pro-apoptotic protein Bax” value in assay [9] was “up-regulation in the expression”. In addition, the “inhibition of cell migration (wound healing)” value in the assay with MCF-7 cells [10] is “migration inhibition in a dose dependent manner”. Moreover, in assay [11], the “expression level of anti-apoptotic protein Bcl-2” value is on record as “decrease in the expression level”. The “inhibition of colony formation” value with MCF-7 cells [12] was “inhibited the colony formation in a dose dependent manner”.
